From ChEMBL document CHEMBL4007472, “Identification of novel TACE inhibitors compatible with topical application” (Bioorg Med Chem Lett, 2017)

Legend:
[1] = biological target: Disintegrin and metalloproteinase domain-containing protein 17 (Mus musculus, UniProt Q9Z0F8); assay: Inhibition of TACE in mouse RAW264.7 cells assessed as inhibition of LPS-stimulated TNFalpha production pretreated for 1 hr followed by LPS stimulation for 4 hrs by ELISA; format: cell-based
[2] = biological target: T1, Disintegrin and metalloproteinase domain-containing protein 17 (Homo sapiens, UniProt P78536); assay: Inhibition of recombinant TACE catalytic domain (unknown origin) using Abz-LAQAVRSSSR-Dpa as substrate preincubated for 10 mins followed by substrate addition measured after 10 mins by FRET assay
[3] = biological target: T1, Disintegrin and metalloproteinase domain-containing protein 17; assay: Inhibition of recombinant human TACE catalytic domain using Mca-Pro-Leu-Ala-Gln-Ala-Val-Dpa-Arg-Ser-Ser-Ser-Arg-NH2 as substrate after 2 hrs by fluorescence assay

Chain of Disintegrin and metalloproteinase domain-containing protein 17 (Mus musculus, UniProt Q9Z0F8) (Q9Z0F8 whole entry, the tested form may be a part): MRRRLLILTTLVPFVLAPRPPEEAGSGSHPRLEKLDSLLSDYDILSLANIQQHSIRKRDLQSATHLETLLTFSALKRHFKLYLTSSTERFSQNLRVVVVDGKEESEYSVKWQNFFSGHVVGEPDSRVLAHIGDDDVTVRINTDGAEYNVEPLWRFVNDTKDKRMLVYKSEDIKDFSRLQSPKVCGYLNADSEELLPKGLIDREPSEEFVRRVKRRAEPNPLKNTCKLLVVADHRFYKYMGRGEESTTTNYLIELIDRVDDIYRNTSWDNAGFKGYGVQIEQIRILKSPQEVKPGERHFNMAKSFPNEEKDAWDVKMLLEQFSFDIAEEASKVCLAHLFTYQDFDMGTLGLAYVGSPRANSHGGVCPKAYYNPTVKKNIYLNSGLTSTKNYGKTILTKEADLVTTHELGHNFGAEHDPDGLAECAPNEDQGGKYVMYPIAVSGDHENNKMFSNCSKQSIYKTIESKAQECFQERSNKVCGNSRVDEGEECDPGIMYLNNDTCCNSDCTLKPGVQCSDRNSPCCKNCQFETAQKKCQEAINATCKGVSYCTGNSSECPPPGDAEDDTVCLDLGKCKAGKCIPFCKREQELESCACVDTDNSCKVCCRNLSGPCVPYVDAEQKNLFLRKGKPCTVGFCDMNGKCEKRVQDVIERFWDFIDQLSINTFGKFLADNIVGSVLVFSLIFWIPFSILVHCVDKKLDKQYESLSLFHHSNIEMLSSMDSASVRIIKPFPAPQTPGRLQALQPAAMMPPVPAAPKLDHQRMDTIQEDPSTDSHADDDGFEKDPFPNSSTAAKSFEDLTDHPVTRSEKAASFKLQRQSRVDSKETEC
T1 sequence (P78536 whole entry, the tested form may be a part): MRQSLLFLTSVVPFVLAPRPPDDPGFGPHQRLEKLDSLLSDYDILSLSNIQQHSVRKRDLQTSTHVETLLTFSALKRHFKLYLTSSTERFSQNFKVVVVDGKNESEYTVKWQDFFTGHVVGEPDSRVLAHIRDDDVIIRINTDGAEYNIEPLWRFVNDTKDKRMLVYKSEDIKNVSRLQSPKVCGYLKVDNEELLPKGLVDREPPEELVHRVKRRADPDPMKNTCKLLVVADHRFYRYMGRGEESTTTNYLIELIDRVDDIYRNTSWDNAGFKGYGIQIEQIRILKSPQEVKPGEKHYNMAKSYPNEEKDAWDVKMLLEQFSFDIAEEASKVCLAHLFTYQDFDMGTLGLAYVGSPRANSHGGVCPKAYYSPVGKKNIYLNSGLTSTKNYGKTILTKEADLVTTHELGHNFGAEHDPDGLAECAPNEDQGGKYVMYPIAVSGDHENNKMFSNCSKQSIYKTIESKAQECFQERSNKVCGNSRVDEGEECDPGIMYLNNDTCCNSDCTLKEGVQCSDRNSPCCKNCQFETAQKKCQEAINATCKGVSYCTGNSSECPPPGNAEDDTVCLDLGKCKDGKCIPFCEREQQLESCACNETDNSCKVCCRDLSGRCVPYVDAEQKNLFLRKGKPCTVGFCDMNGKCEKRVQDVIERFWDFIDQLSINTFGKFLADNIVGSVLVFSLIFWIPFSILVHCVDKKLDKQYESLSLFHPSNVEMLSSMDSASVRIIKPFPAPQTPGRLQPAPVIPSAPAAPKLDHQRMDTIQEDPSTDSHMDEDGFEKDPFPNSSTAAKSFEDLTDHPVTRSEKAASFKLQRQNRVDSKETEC

SMILES | IC50 ([1]; read-out: IC50) | IC50 ([2]; read-out: IC50) | other results
Cc1cc(COc2ccc(S(=O)(=O)N[C@@H]3CCN(C(=O)OC(C)(C)C)C[C@@H]3C(=O)NO)cc2)c2ccccc2n1 | 460 nM | 0.5 nM | –
CC#CCOc1ccc(S(=O)(=O)[C@H]2C[C@@H](C(=O)NO)N(C(C)=O)C2)cc1 | – | – | IC50 [3]: > 10000 nM
Cc1cc(COc2ccc(S(=O)(=O)N[C@@H]3[C@H]4CC[C@H](C4)[C@@H]3C(=O)NO)cc2)c2ccccc2n1 | 18 nM | 0.6 nM | –
CC(=O)N1C[C@@H](S(=O)(=O)c2ccc(OCc3cc(C)nc4c3CCCC4)cc2)C[C@@H]1C(=O)NO | – | – | IC50 [3]: > 10000 nM
Cc1cc(COc2ccc(S(=O)(=O)N3CCCC(C)(C(=O)NO)C3)cc2)c2c(n1)CCCC2 (configuration not stated) | – | – | IC50 [3]: 40 nM
CC#CCOc1ccc(S(=O)(=O)N2CCC(C(=O)NO)C2)cc1 (configuration not stated) | – | – | IC50 [3]: > 10000 nM
Cc1cc(COc2ccc(S(=O)(=O)N[C@@H]3CCNC[C@]3(O)C(=O)NO)cc2)c2ccccc2n1 | 1000 nM | – | IC50 ([2]; read-out: pIC50 (converted)): 100 nM
Cc1cc(COc2ccc(S(=O)(=O)N3CCNC(C(=O)NO)C3)cc2)c2c(n1)CCCC2 (configuration not stated) | – | – | IC50 [3]: 110 nM
CC[C@]1(C(=O)NO)CCC[C@H]1N(C)S(=O)(=O)c1ccc(OCc2cc(C)nc3ccccc23)cc1 | 1000 nM | – | IC50 ([2]; read-out: pIC50 (converted)): 10 nM
Cc1cc(COc2ccc(S(=O)(=O)N[C@@H]3CN(C(=O)OC(C)(C)C)CC[C@H]3C(=O)NO)cc2)c2ccccc2n1 | 58 nM | 0.7 nM | –
Cc1cc(COc2ccc(S(=O)(=O)N[C@@H]3CCOC[C@@]3(C)C(=O)NO)cc2)c2ccccc2n1 | 1920 nM | – | IC50 ([2]; read-out: pIC50 (converted)): 6.31 nM
CNC(=O)N1CC[C@@H](NS(=O)(=O)c2ccc(OCc3cc(C)nc4ccccc34)cc2)[C@@](C)(C(=O)NO)C1 | 1000 nM | – | IC50 ([2]; read-out: pIC50 (converted)): 3.98 nM
Cc1cc(COc2ccc(C(=O)N3CCC(C(=O)NO)C3)cc2)c2c(n1)CCCC2 (configuration not stated) | – | – | IC50 [3]: 6500 nM
Cc1cc(COc2ccc(S(=O)(=O)N[C@@H]3CCN(C=O)C[C@]3(C)C(=O)NO)cc2)c2ccccc2n1 | 1000 nM | 0.6 nM | –
CC(=O)N1C[C@H](S(=O)(=O)c2ccc(OCc3cc(C)nc4c3CCCC4)cc2)C[C@@H]1C(=O)NO | – | – | IC50 [3]: > 10000 nM
Cc1cc(COc2ccc(S(=O)(=O)N[C@@H]3COC[C@@H]3C(=O)NO)cc2)c2ccccc2n1 | 12 nM | – | IC50 ([2]; read-out: pIC50 (converted)): 0.631 nM
Cc1cc(COc2ccc(S(=O)(=O)N[C@]3(C)CCCC[C@@H]3C(=O)NO)cc2)c2ccccc2n1 (racemic) | 25 nM | 0.6 nM | –

SMILES | IC50 ([1]; read-out: IC50) | IC50 ([2]; read-out: IC50) | other results
Cc1cc(COc2ccc(S(=O)(=O)N[C@@H]3CNC[C@@H]3C(=O)NO)cc2)c2ccccc2n1 (relative stereo) | 90 nM | 4.7 nM | –
Cc1cc(COc2ccc(S(=O)(=O)N(C)[C@@H]3CC=CC[C@@H]3C(=O)NO)cc2)c2ccccc2n1 (relative stereo) | 1000 nM | – | –
Cc1cc(COc2ccc(S(=O)(=O)N[C@@H]3CN(C=O)C[C@@H]3C(=O)NO)cc2)c2ccccc2n1 (relative stereo) | 20 nM | – | –
Cc1cc(COc2ccc(S(=O)(=O)N(C)[C@@H]3COC[C@@H]3C(=O)NO)cc2)c2ccccc2n1 (relative stereo) | 930 nM | – | IC50 ([2]; read-out: pIC50 (converted)): 1.26 nM
Cc1cc(COc2ccc(S(=O)(=O)N(C)[C@H]3CCCC[C@@H]3C(=O)NO)cc2)c2ccccc2n1 (relative stereo) | 911 nM | 1.4 nM | –
Cc1cc(COc2ccc(S(=O)(=O)N[C@@H]3CCC[C@@H]3C(=O)NO)cc2)c2ccccc2n1 (relative stereo) | 9 to 11 nM | – | IC50 ([1]; read-out: pIC50 (converted)): 10 nM; IC50 ([2]; read-out: pIC50 (converted)): 0.631 nM
Cc1cc(COc2ccc(S(=O)(=O)N(C)[C@@H]3CCOC[C@@H]3C(=O)NO)cc2)c2ccccc2n1 (relative stereo) | 1000 nM | – | –
Cc1cc(COc2ccc(S(=O)(=O)N(C)[C@@H]3CCC[C@@H]3C(=O)NO)cc2)c2ccccc2n1 (relative stereo) | 93 nM | 0.6 nM | –
C#CCN1C[C@H](C(=O)NO)[C@H](NS(=O)(=O)c2ccc(OCc3cc(C)nc4ccccc34)cc2)C1 (relative stereo) | 90 nM | – | –
CCNC(=O)N1C[C@H](C(=O)NO)[C@H](NS(=O)(=O)c2ccc(OCc3cc(C)nc4ccccc34)cc2)C1 (relative stereo) | 51 nM | – | IC50 ([2]; read-out: pIC50 (converted)): 1.26 nM
Cc1cc(COc2ccc(S(=O)(=O)N[C@H]3CCCC[C@@H]3C(=O)NO)cc2)c2ccccc2n1 (relative stereo) | 60 nM | 1.8 nM | –
Cc1cc(COc2ccc(S(=O)(=O)N[C@@H]3CN(C(=O)OC(C)(C)C)C[C@@H]3C(=O)NO)cc2)c2ccccc2n1 (relative stereo) | 38 nM | 0.6 nM | –
Cc1cc(COc2ccc(S(=O)(=O)N[C@@H]3CCOC[C@@H]3C(=O)NO)cc2)c2ccccc2n1 (relative stereo) | 17 nM | – | –
Cc1cc(COc2ccc(S(=O)(=O)N[C@H]3CCN(C(=O)NC(C)(C)C)C[C@H]3C(=O)NO)cc2)c2ccccc2n1 (relative stereo) | 30 nM | 0.6 nM | –
Cc1cc(COc2ccc(S(=O)(=O)N[C@@H]3CCCC[C@@H]3C(=O)NO)cc2)c2ccccc2n1 (relative stereo) | 80 nM | 1 nM | –
CC(=O)N1C[C@H](C(=O)NO)[C@H](NS(=O)(=O)c2ccc(OCc3cc(C)nc4ccccc34)cc2)C1 (relative stereo) | 20 nM | 0.6 nM | –
Cc1cc(COc2ccc(S(=O)(=O)N(C)C3C(C(=O)NO)[C@@H]4CC[C@H]3O4)cc2)c2ccccc2n1 (relative stereo; form 1) | 250 nM | 43 nM | –
